Results taken from ChEMBL document CHEMBL3044989, “Structurecytotoxicity relationship of a novel series of miconazole-like compounds” (Med Chem Res, 2012).
Active and inactive are the calls of the source. The rule behind the calls is not given here.

What was measured:
Escherichia coli = assay: Antimicrobial activity against Escherichia coli (DH5alpha) after 16 hr by spectrophotometry; format: functional, organism-based; details: DH5[alpha]
K562 = assay: Cytotoxicity against Homo sapiens (human) K562 cells at 20 to 80 uM after 24 hr by MTT assay; format: functional, cell-based

| SMILES | IC50 (Escherichia coli) [µM] | Activity (K562) |
| --- | --- | --- |
| c1ccc(N/N=C(/Cn2ccnc2)c2ccccc2)cc1 | 7.6 |  |
| O=c1ccn(C/C(=N/Nc2ccccc2)c2ccccc2)c(=O)[nH]1 | 57.3 |  |
| c1ccc(N/N=C(/Cn2ccnc2-c2ccccc2)c2ccccc2)cc1 | 16.8 |  |
| O=c1cnn(C/C(=N/Nc2ccccc2)c2ccccc2)c(=O)[nH]1 | 14.6 | Active |
| c1ccc(N/N=C(/Cn2cnc3ccccc32)c2ccccc2)cc1 | 12.3 |  |
| COc1ccc(/C(Cn2cnc3ccccc32)=N\Nc2ccccc2)cc1 | 13.7 |  |
| Cc1cn(C/C(=N/Nc2ccccc2)c2ccccc2)c(=O)[nH]c1=O | 7.1 |  |

The next compounds have a lower IC50 (Escherichia coli) than those just listed; values first:

| IC50 (Escherichia coli) [µM] | SMILES | Activity (K562) |
| --- | --- | --- |
| 6.2 | COc1ccc(/C(Cn2ccc(=O)[nH]c2=O)=N\Nc2ccccc2)cc1 |  |
| 4.8 | O=c1[nH]c(=O)n(C/C(=N/Nc2ccccc2)c2ccccc2)cc1Cl |  |
| 3.4 | c1ccc(N/N=C(/Cn2nnc3ccccc32)c2ccccc2)cc1 | Active |
| 3.1 | O=C1CNC(=O)N1C/C(=N/Nc1ccccc1)c1ccccc1 | Active |
